Entries after “also recorded” stand apart in the source; their conditions may differ. Values belong to the molecule of their own block, whether it stands above or below them. Ends that are not written are not given here.
Legend:
Type in all cases: cell-based
human ES cells (KhES-1) = assay: Differentiation induction of human ES cells by SFEBq method, analysed by fluorescent antibody method; conditions: Day 30 of culture
Excerpt: Next, it was examined whether the method can be applied also to human ES cells. Human ES cells (KhES-1) were subjected to maintenance culture by a conventional method on MEF and then used. To monitor differentiation induction into a hypothalamic tissue, KhES-1 wherein a Venus cDNA has been knocked-in into the gene of Rx which is a hypothalamic nerve marker was used. To differentiate human ES cells by Serum-Free Embryonic Body quick method (SFEBq method), human ES cells were dispersed to single cells using an enzyme by the method of Nakano et al. (Cell Stem Cell. 2012 Jun. 14; 10 (6): 771-85), and reaggregated using a low cell adhesive V-bottom 96-well plate (Sumitomo Bakelite Co., Ltd.). Ten thousand (10,000) cells were seeded per well and cultured in a gfCDM differentiation medium at 37° C. under 5% CO2. With the day of seeding defined as Day 0 of differentiation culture, 20 μM Y-27632 (ROCK inhibitor: cell death suppressor at the time of dispersion: Watanabe et al. (Nat Biotechnol. 2007 June; 25 (6): 681-6. Epub 2007 May 27.)) was added from Day 0 to Day 3, and, on and after Day 3 of culture, a half of the medium was exchanged with a differentiation medium free from Y-27632 at a frequency of once every 3 days. Based on the thought that no aggregate was formed due to nutritional deficiency, a small amount of a serum alternative KSR was added to the gfCDM to verify the effect. Specifically, the SFEBq method was performed by mixing 2%, 5%, 10%, and 20% KSR in the gfCDM medium. On and after Day 18, the oxygen partial pressure during culture was set to 40%. The differentiation of the tissue was analyzed by a fluorescent antibody method. Based on the thought that the positional shift to the telencephalon was caused by various growth factors included in KSR, the addition of a bone morphogenetic protein signal transduction pathway activating substance was decided. Specifically, differentiation induction was attempted under the following conditions. […]

[1] = system: pituitary tissue (ACTH neurons) from human iPS cells (201B7 strain); assay: ACTH stimulation test using CRH; conditions: CRH added at 5 μg/ml; pituitary tissue from human iPS cells (201B7)
Experimental: (§1) Human iPS cells (201B7 strain) were cultured under conditions (see column A.2) that were effective for simultaneous maturation of hypothalamus and pituitary. Pituitary tissue and hypothalamic tissue were observed on Day 60 of culture, and ACTH neurons were detected in pituitary tissue. In addition, the amount of ACTH secreted from pituitary tissue was increased by long-term culture (FIG. 19), and it was confirmed that the maturation of pituitary tissue had progressed with the lapse of culture time.
In order to evaluate the function of pituitary tissue obtained by culture under the conditions in (1), an ACTH stimulation test using CRH (right in FIG. 21) was performed. The test method was in accordance with the previously reported method (Ozone C et al., Functional anterior pituitary generated in self-organizing culture of human embryonic stem cells. Nat Commun. 2016 Jan. 14; 7: 10351.) (CRH was added at 5 μg/ml). […] In addition, it was confirmed, by analysis by the fluorescent antibody method, that ACTH positive cells were CRH-R1 positive (center in FIG. 21).

[2] = system: AVP neurons induced from human ES cells (KhES-1); assay: KCl stimulation test of induced AVP neurons (AVP hormone by RIA method); conditions: isotonic solution containing 0.1% potassium chloride for 30 minutes; cells on Day 180 of culture
Excerpt: As a result of continuing suspension culture under the dorsal hypothalamus induction conditions, the expression of Otp and Brn2 (generally, Otp and Brn2 positive hypothalamus is thought to be in the precursor state of AVP neurons) was confirmed on Day 60 of culture (FIG. 6), and a small number of AVP-positive cells were observed on Day 103 of culture (FIG. 7). In order to improve the induction efficiency, the incorporation of dissociation culture, which is considered to be advantageous in neurogenesis, was decided. Specifically, differentiation induction was attempted under the following conditions. Cell aggregates were dispersed, and cells were seeded at 2×10^4 to 40×10^4 cells/cm^2 on glass plates coated with Laminin, Poly-D-Lysine and Matrigel, respectively, and subjected to plane culture in media obtained by adding NT3, BDNF, CNTF, and FBS, respectively, to a DFNB medium. Medium exchange was carried out at a frequency of once every 3 days.
As a result of differentiation induction under the above conditions, the appearance of AVP neurons was confirmed on Day 150 of culture (FIG. 8). […] First, the medium after used for cell culture for 3 days was recovered, and the AVP hormone in the medium was measured by RIA method. […]

CRH-R1 = target: T1, CRH-R1 (Homo sapiens, UniProt P34998); assay: ACTH suppression test using a CRH-R1 inhibitor; conditions: CRH-R1 inhibitor 10^−5 M added at the time of stimulation with CRH addition
T1 construct: it was confirmed, by analysis by the fluorescent antibody method, that ACTH positive cells were CRH-R1 positive; endogenous in cells; host or cells: pituitary tissue (ACTH-positive cells) differentiated from human iPS cells, 201B7 strain
T1 sequence (P34998 24-415): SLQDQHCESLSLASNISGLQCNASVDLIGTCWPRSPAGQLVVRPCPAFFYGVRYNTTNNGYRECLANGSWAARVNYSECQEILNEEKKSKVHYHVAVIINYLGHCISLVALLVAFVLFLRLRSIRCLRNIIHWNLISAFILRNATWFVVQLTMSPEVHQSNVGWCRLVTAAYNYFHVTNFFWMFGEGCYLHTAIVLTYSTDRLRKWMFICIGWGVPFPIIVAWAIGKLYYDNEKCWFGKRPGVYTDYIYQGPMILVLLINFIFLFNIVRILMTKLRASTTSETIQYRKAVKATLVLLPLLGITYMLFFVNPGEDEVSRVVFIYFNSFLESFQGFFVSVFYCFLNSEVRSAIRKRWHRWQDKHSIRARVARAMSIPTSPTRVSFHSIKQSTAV
Experimental: as §1
To further evaluate the function of pituitary tissue obtained by culture under the conditions in (1), an ACTH suppression test using a CRH-R1 inhibitor (Antalarmin, NBI2719) was performed (right in FIG. 23). A CRH-R1 inhibitor was added at a dose of 10^−5 M (test group) at the time of stimulation with CRH addition, and the amount of ACTH secreted was compared with that when no CRH-R1 inhibitor was added (control group). As a result of the test, the secretion of ACTH was suppressed by the CRH-R1 inhibitor (left and center in FIG. 23).

[3] = SAG 0.5 μM with BMP signal activating substance 1.5 to 2.0 nM from Day 6

Molecule: CN[C@H]1CC[C@H](N(Cc2cccc(-c3ccncc3)c2)C(=O)c2sc3ccccc3c2Cl)CC1 [SAG]
differentiation efficiency of hypothalamic precursor cells (human ES cells (KhES-1); [3]): exceeded 80%
marker expression of cell aggregates (human ES cells (KhES-1); [3]): co-positive for Rx and Pax6 and Chx10 negative

Molecule: CRH: corticotropin releasing hormone, added at 5 μg/ml in the ACTH stimulation test (SEEPPISLDLTFHLLREVLEMARAEQLAQQAHSNRKLMEII; ends and bridges not checked; UniProt P06850 154-194, looked up)
ACTH secretion in response to CRH [1]: ACTH was secreted in response to CRH

Molecule: [Cl-].[K+] [potassium chloride]
response of AVP neurons (AVP hormone secretion) to stimulation [2]: responded well

amount of ACTH secreted vs control group without CRH-R1 inhibitor (CRH-R1): suppressed
Molecule: CCCCN(CC)c1nc(C)nc2c1c(C)c(C)n2-c1c(C)cc(C)cc1C [Antalarmin]

B1: BMP4: bone morphogenetic protein signal transduction pathway activating substance; a known cytokine (protein, UniProt P12644 293-408, looked up)
Bone morphogenetic protein 4: SPKHHSQRARKKNKNCRRHSLYVDFSDVGWNDWIVAPPGYQAFYCHGDCPFPLADHLNSTNHAIVQTLVNSVNSSIPKACCVPTELSAISMLYLDEYDKVVLKNYQEMVVEGCGCR
marker expression (human ES cells (KhES-1); about 3.0 nM from Day 6, KSR-containing gfCDM): Rx as a hypothalamic marker and Pax6 as a dorsal marker became co-positive; also recorded: the retinal marker Chx10 also became positive

— US12378518B2, “Differentiation induction from human pluripotent stem cells into hypothalamic neurons” (National University Corporation Nagoya University, priority 2016, dated 2025)
